Measured values taken from patent US10323229B1, “Three-dimensional human stem cell-derived cortical spheroid model” (The Florida State University Research Foundation, Inc., priority 2015, dated 2019).

What was measured:
[1] = test system: neural cells derived from human iPSK3 cells; experiment: Aβ1-42 oligomer-induced response in presence of GSK-3β inhibitor CHIR99021 (MTT, ROS, caspase); format: cell-based; settings: CH 10 μM with 1 μM Aβ1-42 oligomers, day 46 cells
Source text: The cells were subsequently characterized by MTT, ROS, and poly caspase assays (Yan, et al., Cryopreservation of embryonic stem cell-derived multicellular neural aggregates labeled with micron-sized particles of iron oxide for magnetic resonance imaging, Biotechnol Prog, 31 (2015) 510-521; Sart, et al., The microenvironment of embryoid bodies modulated the commitment to neural lineage post-cryopreservation, Tissue Eng Part C: Methods., 21 (2015) 356-366). To evaluate the influence of glycogen synthase kinase (GSK)-3p inhibitor, CHIR99021 (1 or 10 μM) was added to the cultures treated with 1 μM Aβ1-42 oligomers for three days and characterized.
(§1) Briefly, the replated neural cells were incubated with 5 mg/mL 3-(4,5-Dimethylthiazol-2-yl)-2,5-diphenyltetrazolium bromide (MTT, Sigma) solution. The absorbance was measured at 500 nm using a microplate reader (Biorad, Richmond, Calif.). Image-iT™ Live Green Reactive Oxygen Species Detection kit (Molecular Probes) was used to detect the intracellular ROS. Briefly, neural cells were seeded at 1×10^5/mL in 96-well plates (100 μL). After 3 days, the cells were rinsed with Hank's balanced salt solution and incubated with 25 μM carboxy-H2DCFDA for 30 min at 37° C. The samples were washed and measured under a fluorescence microplate reader using 488 nm excitation wavelength and 530 nm for emission (Bio-Tek, FLx800, Winoosk, Vt.). Image-iT™ Live Green Poly Caspase Detection kit (Molecular Probes) was used to detect the expression of caspases. The replated cells were incubated for one hour with the fluorescent inhibitor of caspases reagent and analyzed by a fluorescence microplate reader.

hiPSK3-derived EBs = experiment: Neural patterning, immunocytochemistry marker quantification; format: cell-based, human; settings: day 42 cells, CHIR 3 μM added to purmorphamine/FGF-2/RA
Procedure: Cells were analyzed using phase contrast microscopy, as described in Example 1 or immunohistochemistry. […] After washing, the cells were incubated with the corresponding secondary antibody: Alexa Fluor® 488 goat anti-Mouse IgG, Alexa Fluor® 488 or 594 goat anti-Rabbit IgG, or Alexa Fluor® 594 donkey anti-goat IgG (Life Technologies). The samples were stained with Hoechst 33342 and visualized under a fluorescent microscope (Olympus IX70, Melville, N.Y.). The images from five independent fields (800-1000 cells) were analyzed using ImageJ software. The proportion of positive cells was calculated based on the intensity of marker of interest normalized to the nuclear intensity, indicating the relative expression among different conditions. A neuronal model was prepared using LDN/SB induction, as discussed in Example 2. Neural patterning of hiPSCs was tuned through treatment with cyclopamine (the antagonist of SHH signaling) or purmorphamine (the agonist of SHH signaling) (Stanton & Peng, Small-molecule modulators of the Sonic Hedgehog signaling pathway, Mol Biosyst, 6 (2010) 44-54). […] After 8 days, the cells were treated with different growth factor combinations: […] (3) FGF-2 (10 ng/mL) and cyclopamine (1 μM, Sigma). […]

[2] = test system: hiPSC-derived neural cells; experiment: NMDA-induced neurotoxicity (MTT, ROS, poly caspase); format: cell-based, human
Procedure: (§2) The hiPSC-derived neural cells were tested to determine response to different drugs and small molecules. Neural cells were formed as described in Example 2. After differentiation, the derived neural cells were replated onto Geltrex-coated 96-well plate and treated with N-methyl-D-aspartate (NMDA) at 0, 0.05, 0.5, 1 mM to mimic general neural toxicity. Cells were tested to determine response to neural protective molecules. Carbenoxolone (Cx, Sigma) (Beraki, et al., A pharmacological screening approach for discovery of neuroprotective compounds in ischemic stroke, PLoS One, 8 (2013) e69233) was added at different doses (0, 10 µM, 50 µM) of Cx were added with 0.5 mM NMDA for the first 24 h. Then samples were washed with phosphate buffer and the same doses of Cx were added for another 24 h. The cells were then characterized by MTT, reactive oxygen species (ROS), and poly caspase assays.
as §1

[3] = test system: neuronal cells derived from hiPSK3 cells; experiment: MMP-2/-9 inhibitor effects: neurite density, MTT, cell counting; format: cell-based, human; settings: phase contrast, 1 μM
Procedure: Derived neural cells, as described above, were replated onto Geltrex-coated 96-well plate and treated with MMP inhibitors: ARP 100 (MMP-2 inhibitor), MMP-9 inhibitor I, or SB-3CT (MMP-2 and MMP-9 inhibitor) (all from Santa Cruz) at 1 μM.
The cells were then characterized by MTT, reactive oxygen species (ROS), and poly caspase assays. For some experiments, cell numbers were counted using hemocytometer after trypsin/EDTA dissociation.
as §1, with “Image-iT™ Live Green Poly Caspase Detection kit (Molecular Probes) was used to detect the expression of caspases.” left out

[4] = test system: hiPSC-derived neural cells; experiment: Carbenoxolone neuroprotection from NMDA-induced neurotoxicity (MTT, ROS, poly caspase); format: cell-based, human
Procedure: as §2, §1

Cc1c[nH]c(-c2cnc(NCCNc3ccc(C#N)cn3)nc2-c2ccc(Cl)cc2Cl)n1 [CHIR99021]
ROS levels [1]: reduced
caspase levels [1]: reduced
increase of MTT activity ([1]; vs. groups without CH or with 1 μM CH): 25-45%
expression of ISL1 and HB9 (motor neuron differentiation) (hiPSK3-derived EBs): increased

CN[C@H](CC(=O)O)C(=O)O [NMDA, N-methyl-D-aspartate]
caspase activity ([2]; NMDA 0-1 mM): logarithmic relationship with NMDA concentration
expression of ROS ([2]; NMDA 0-1 mM): increased logarithmically
reduction of MTT activity ([2]; NMDA 0.5 or 1 mM, all three groups (control, Purmo, Cyclo)): 30-50%

O=S(=O)(CC1CS1)c1ccc(Oc2ccccc2)cc1 (stereo not drawn) [SB-3CT]
neurite density ([3]; Cyclo group (more cortical glutamatergic neurons)): little changes
neurite density ([3]; Purmo group (more motor neurons)): reduction of neurite density

CC1(C)[C@@H](OC(=O)CCC(=O)O)CC[C@]2(C)[C@H]3C(=O)C=C4[C@@H]5C[C@@](C)(C(=O)O)CC[C@]5(C)CC[C@@]4(C)[C@]3(C)CC[C@@H]12 [carbenoxolone, Carbenoxolone]
increase in MTT activity ([4]; carbenoxolone 10 or 50 μM with 0.5 mM NMDA): 28-56%
expression of ROS ([4]; carbenoxolone with 0.5 mM NMDA): reduced expression of ROS
caspase activity ([4]; carbenoxolone with 0.5 mM NMDA, all three groups): decreased
